Patent US20200282019A1, “METHODS OF TREATING NEURODEGENERATIVE DISEASES” (priority 2017, published 2020)
“Also recorded” adds a separate entry of the source.

Columns and labels:
BACE1 [1] = experiment: BACE1 expression after PACAP treatment; format: cell-based, APP-transgenic mice
Source text: PACAP38 is the full length active peptide.
(§1) As the amyloid accumulation in AD was contributed by amyloid precursor protein (APP) cleaved by overactive β-secretase (BACE1) and subsequently by γ-secretase, the desirable therapeutic goal is to inhibit BACE1 and/or γ-secretase, while enhancing α-secretase. The inventors used APP-transgenic mice pups to establish cortical neuronal culture with the method that the inventors previously published (Han et al 2014, Neurobiology of Aging). At 14 days, the inventors added PACAP and treated for 72 hours. Then the cells were harvest for BACE1, ADAMS, or other ELISA-based Assays.

[2] = test system: phosphorylated Tau protein at the site of pThr231; experiment: Aβ42-induced Tau phosphorylation at Thr231, Western blot in cultured primary neurons; format: cell-based
Source text: The cells were harvested and homogenized for Western blot assay. The inventors used an antibody specific to phosphorylated Tau protein at the site of pThr231 (Pierce-antibody OPA1-03156).

cultured neurons [3] = experiment: Excitatory Postsynaptic Currents (EPSCs), Patch Clamp recording in cultured neurons; format: cell-based; conditions: for average EPSCs: control 21±5 pA
Protocol: (§2) FIG. 12 depicts, in accordance with embodiments herein, the impact of PACAP's administration on synapses. […] Cultured neurons were treated with either nothing (top left), Aβ42 (top middle) or PACAP with Aβ42 (top right). Bottom panel: PACAP enhances synaptic transmissions (EPSCs frequency and amplitude) in cultured neuronal network.
(§3) Furthermore, PACAP increased the frequency and amplitude of Excitatory Postsynaptic Currents (EPSCs) in cultured neurons without Aβ in the media (FIG. 12 bottom panel). The average EPSCs was 21±5 pA in control (n=7 cells), which was increased to 31±3 pA (n=9 cells) if the cultured neurons were pretreated with PACAP (20 nM) for 72 hours before Patch Clamp recording (p<0.05, one way ANOVA with posthoc Tukey test). PACAP6-38, the truncated non-active version mixed with PACAP38 blocked the effect of PACAP, resulting in an average EPSCs of 24±3 pA (n=6).

[4] = test system: primary cortical neuron cultures; experiment: Aβ-induced toxicity, MTT cell survival in primary cortical neuron cultures; format: cell-based, mice; conditions: for cell survival (MTT, control cells normalized to 100%): overnight
Protocol: The inventors applied three different doses of Aβ overnight to primary cortical neuron cultures obtained from neonatal mice and examined cell survival using the MTT chemiluminescent assay (FIG. 6). The MTT value of control cells (no Aβ added) was normalized to 100% and all other MTT values of cells incubated with Aβ were presented as a percentage of survival.

BACE1 [5] = experiment: BACE1 FRET activity assay (Michaelis-Menten) on PACAP-treated cortical neuronal culture; format: cell-based, APP-transgenic mice; conditions: PACAP treatment
Protocol: FIG. 7 depicts, in accordance with embodiments herein, that PACAP inhibits BACE1 activity. Left panel: BACE1 activity kinetic was measured and fitted with Michaelis-Menten Model. […] Right panel: steady state endpoint fluorescent units (RFU). Note PACAP reduces the end product by BACE1.
as §1
The inventors measured BACE1 activity using a BACE1 FRET assay kit (Panvera, Life technologies) with a customized protocol. The artificial substrate of BACE1 is a short peptide with a rhodamine-derived fluorescent donor coupled to a quenching acceptor (Rh-[…]-Quencher). Upon cleavage by BACE1, the rhodamine donor is released from quencher and emitted fluorescence detected under a wavelength of Ex/Em=545/585 nm. […]

[6] = test system: phosphorylated Tau protein at the site of 422; experiment: Aβ42-induced Tau phosphorylation at site 422, In-Cell Western in cultured primary neurons; format: cell-based
Protocol: The cells were fixed in 96 wells plate for In-Cell Western assay. The inventors used an antibody specific to phosphorylated Tau protein at the site of 422 and Tau5 antibody for total Tau quantification. pTau/total Tau ratio was calculated and compared. […] Okadaic acid (OA) is a potent phosphatase inhibitor to test maximal pTau capacity.
Because Tau hyperphosphorylation is contingent upon Aβ, this in vitro model best epitomizes AD pathogenesis and can differentiate AD from other tauopathy (FTLD, PDD, etc). […] Meanwhile, PACAP38 (lane 4) reduced Aβ-induced Tau phosphorylation and the phosphorylated Tau to actin ratio was 0.5. […] In addition to the phosphorylation site at Thr231 of Tau, the inventors tested pTau 422 using an in-cell Western approach on cultured cells (FIG. 11). PACAP (50 nM) reduces pTau422 by 40%.

cultured neurons [7] = experiment: Neurite integrity / Aβ-induced synaptic degeneration in cultured neurons; format: cell-based; conditions: PACAP with Aβ42
Protocol: as §2, §3

APP transgenic mice [8] = experiment: Thioflavin-S dense core amyloid plaques in hippocampal region after intranasal PACAP; format: in vivo
Protocol: FIG. 13 depicts, in accordance with embodiments herein, the impact of PACAP's administration on plaques in APP transgenic mice in that PACAP reduces dense core amyloid plaque size. A: a typical amyloid plaque in the hippocampal region of an untreated APP transgenic mouse at 9 month age. Bar=20 μM. B: an amyloid plaque in the hippocampal region from an APP transgenic mouse (9 month) after intranasal PACAP treatment. Bar=20 μM.
(§4) The inventors gave intranasal PACAP treatment to a group of APP transgenic mice and their wild-type littermates. Starting from the age of 6 months, these groups of mice were given bilateral nostril injection of PACAP (0.1 μg/μl, 3 μl per nostril) three times per week for eight continuous weeks. The injection procedure was described by Nonako et al 2012. At the age of 9 months, the inventors sacrificed the mice and examined amyloid plaques in the hippocampal regions using thioflavin-S staining and photographed under fluorescent microscope. These thioflavin-S positive dense core plaques are associated with deleterious effects whereas thioflavin-S negative diffusive amyloid plaques are non-detrimental and often associated with cognitive normal elderly individuals (Serrano-Pozo et al., 2011).

[9] = test system: APP transgenic mice and wild-type littermates; experiment: Novel Objects Recognition (NOR) test after intranasal PACAP; format: in vivo; conditions: PACAP-treated WT mice
Protocol: as §4
Next, the inventors performed the Novel Objects Recognition (NOR) test. Briefly, the mice were acclimatized to a square chamber, then two identical objects were placed in the chamber on the second day. On the third day, one of the objects was replaced with a novel object. It is a natural behavior to take more time to explore the new object. The discriminating capacity on the new object vs the old object was calculated as discrimination index (DI) as follows:
In APP mice, DI change was −110% (n=4), indicating deterioration on cognitive function from 6-9 month (without PACAP treatment). […]

APP transgenic mice [10] = experiment: Morris Water Maze (MWM) in APP mice after intranasal PACAP; format: in vivo; conditions: APP mice at 10 months
Protocol: (A) APP mice were either treated with intranasal PACAP (n=4) or treated with intranasal saline (n=4). (B) WT mice were either treated with intranasal PACAP (n=3) or saline (n=3).
as §4
In APP mice, DI change was −110% (n=4), indicating deterioration on cognitive function from 6-9 month (without PACAP treatment). PACAP treatment slows the declining rate as the DI change was −40% in PACAP-treated APP mice group (n=4). Furthermore, the inventors tested the mice in the Morris Water Maze (MWM), which is a behavior test used to examine the spatial recognition and memory function of mice. […]

hTau transgenic mice = experiment: Morris Water Maze in hTau transgenic mice after intranasal PACAP; format: in vivo; conditions: hTau mice at 10 months, intranasal PACAP 0.1 μg/μl, 3 μl per nostril, 3 times a week, 8 weeks
Protocol: The inventors gave intranasal PACAP treatment for a group of hTau transgenic mice and their WT littermates. Starting from the age of 6 months, these groups of mice were given bilateral nostril injection of PACAP (0.1 μg/μl, 3 μl per nostril) 3 times a week for a continuous 8 weeks. Human Tau mice are appropriate model to test Tau phosphorylation and its pathological consequence. In this strain (B6.Cg-Mapttml(EGFP)Klt Tg(MAPT)8cPdav/J, Jackson lab), the intrinsic mice tau was disrupted by inserting eGFP sequence to the first exon of mice tau, but all 6 isoforms of human Tau (both 3R and 4R) were knocked in. The hTau mice show age dependent accumulation of hyperphosphorylated and aggregated tau in cortex and hippocampus, neuronal loss, and cognitive decline. The inventors tested the mice in Morris Water Maze, which is a behavior test approach to examine the spatial recognition and memory function of mice. […] Taken together, PACAP nasal injection decreases AD pathology and improves cognitive performance in two animal models of AD.

## PACAP6-38 [reference compound]
BACE1 [1]; PACAP6-38 with PACAP
  effect of PAC1 receptor blocker on BACE1 reduction by PACAP: antagonized the BACE1 reduction effect of PACAP
[2]; PACAP6-38 (2 μM) with PACAP38 (50 nM) and Aβ42, lane 3
  effect on PACAP reduction of pTau231: offsetting the effect of PACAP
Cultured neurons [3]; PAC1 receptor antagonist with PACAP
  effect on PACAP enhancement of synaptic transmissions: blocks the enhancement
Cultured neurons [3]; PACAP6-38 mixed with PACAP38
  average EPSCs: 24±3 pA

## Pituitary Adenylate Cyclase Activating Polypeptide [PACAP]
[4]; Aβ42 1 μM, cultured mouse cortical neurons
  PACAP concentration that effectively protects against Aβ42 toxicity: ≥ 50 nM
[4]; PACAP 50 nM added at the same time as 1 μM Aβ
  cell survival (MTT, control cells normalized to 100%): 79±5%
[4]; PACAP 100 nM added at the same time as 1 μM Aβ
  cell survival (MTT, control cells normalized to 100%): 87±4%
BACE1 [5]
  steady state endpoint fluorescent units (RFU), end product by BACE1: reduces
BACE1 [1]; PACAP38 full length peptide
  BACE1 expression: reduces BACE1 expression
[2]; PACAP38 (50 nM) added 24 hours after Aβ42 (0.5 μM), 48 hours, lane 4, non-treated 0.25
  phosphorylated Tau (pTau231) to actin ratio: 0.5
[6]; PACAP 50 nM, Aβ42 (0.25 μM) treated cells
  reduction of pTau422: 40%
[6]; PACAP by itself, without Aβ42
  pTau/total Tau ratio: did not change Tau phosphorylation
[6]; low dose PACAP 10 nM, Aβ42 treated cells
  reduction of pTau422: marginal effect
Cultured neurons [3]; cultured neurons without Aβ in the media
  frequency and amplitude of EPSCs: increased; also recorded: enhances
Cultured neurons [3]; pretreated with PACAP (20 nM) 72 hours, no Aβ
  average EPSCs: 31±3 pA
Cultured neurons [7]
  neurite integrity / Aβ-induced synaptic degeneration: protects Aβ-induced synaptic degeneration; also recorded: protects Aβ induced synaptic degeneration; also recorded: protects neurite integrity
APP transgenic mice [8]; intranasal PACAP 0.1 μg/μl, 3 μl per nostril, three times per week, eight weeks from 6 months, examined at 9 months
  dense core amyloid plaque size (average core diameter): smaller size; also recorded: significantly reduced
APP transgenic mice [8]; intranasal PACAP, APP transgenic mice, 9 month
  number of amyloid plaques: did not significant change
[9]
  discrimination index (DI) change: positively changed
APP transgenic mice [10]
  MWM performance: prevents the deterioration
hTau transgenic mice
  MWM performance: prevented the deterioration
